# Data as given in US20220282304A1, “SAME-SAMPLE ANTIBIOTIC SUSCEPTIBILITY TEST AND RELATED COMPOSITIONS, METHODS AND SYSTEMS” (CALIFORNIA INSTITUTE OF TECHNOLOGY, priority 2021, published 2022).
# Columns and labels:
# [1] = test system: Escherichia coli isolate A; test: Same-sample filtration AST, replicate treated and concurrent reference conditions (Example 3), isolate A; assay type: cell-based; settings: 1 μg/mL ETP, 60 minutes 37° C.
# Description: Isolate A was susceptible to ertapenem, while isolate B was resistant. The inoculum was small enough that no detectable difference in the sample's optical density at 600 mm (OD600) was detectable before and after inoculation by an Ultrospec 10 spectrophotometer with an analytical sensitivity of 0.01 absorbance units. After an incubation at 37° C., the media became turbid with an OD600 of 0.5 absorbance units after about 2 hours of incubation.
# To begin the AST protocol, 23.75 μL of the above 8 bacteria batch culture dilutions was twice added to and mixed with 1.25 μL of water containing either 20 μg/mL or 0 μg/mL of dissolved ertapenem (ETP) antibiotic. As a result, […] at 1 μg/mL were created, and 8 untreated reference conditions were created (see Table 2 below). The […] were incubated at 37° C. for 60 minutes.
# After 60 minutes of incubation, the entire volume of each antibiotic exposure was transferred to an individual cellulose acetate filter unit with a 0.2 μm pore size. […]
# 50 μL of fresh MHB media was spun through the filters after the first centrifugation (above) to wash away residual extracellular nucleic acids present in the fluid wetting the filters. […] In this experiment, the wash fluid was collected and analyzed to learn more about the protocol, but this washing step is not necessary for determining susceptibility of the isolate. […]
# [2] = test system: carbapenem-resistant Escherichia coli isolate; test: Digital same-sample filtration AST, one treated and one concurrent reference condition (Example 6); assay type: cell-based
# Description: The inoculum was small enough that no detectable difference in the sample's optical density at 600 mm (OD600) was detectable by a spectrophotometer with a sensitivity of 0.01 absorbance units. The OD600 of the culture measured every 30 minutes after the culture was incubated at 37° C. to calculate the doubling time of the strain. The media became turbid with an OD600 of 0.28 absorbance units after 3.1 hours of incubation.
# In this experiment, the number and volume of sample partitions was restricted, for logistical reasons, to 96 partitions 10 μL, in volume, specifically the wells of a 96-well plate. A goal was chosen of having a >98% chance of ending up with at least 48 empty partitions. When all partitions are the same volume, the following formula relates the expected number of empty partitions, the partition volume, and the density of cells.
# N is the total number of partitions, n is the number of empty partitions, V is the partition volume, D is the density of cells, and t is a threshold probability chosen by the practitioner. Thus, in order to achieve digital sample partitioning with the available 96-well plate, the contrived clinical specimen was diluted to a cell density of 0.0375 cells/μL. Each 10 μL sample of the specimen would then contain 0.375 cells on average.
# To begin the AST protocol, the contrived clinical sample was physically split into the 96 partitions by transferring 10 μL of the sample, in 96 separate transfers (actually 12 transfers with a multichannel pipette), to 96 wells of a microtiter plate. Each well contained 15 μL of Mueller-Hinton Broth (MHB) growth media. Half of the wells (48) contained 0 μg/mL of dissolved ETP antibiotic and served as reference condition antibiotic exposures. The other half of the wells contained 1.67 μg/mL of ETP (for a final concentration of 1.0 μg/mL) and served as 48 treated condition antibiotic exposures.
# The 96 antibiotic exposures were incubated at 37° C. for 40 minutes.
# The entire volume of each antibiotic exposure was transferred to a Millipore® 96-well sterile polystyrene MultiScreenHTS® filter plate (Millipore-Sigma MSGVS2210). Each well of the filter plate contained a hydrophilic polyvinylidene fluoride (PVDF) filter membrane with a 0.22 μm pore size. The antibiotic exposures were centrifuged at 2200 relative centrifugal force to speed the passage of the antibiotic exposure through the filter and into 96 collecting vessels. The collected fluid was called the “filtrate.” It is expected that the filtrate will contain all or most of the extracellular nucleic acids present in the antibiotic exposure, but none of the intracellular nucleic acids in the antibiotic exposure.
# 50 μL of fresh MHB media was spun through the filters after the first centrifugation (above) to wash away residual extracellular nucleic acids present in the fluid wetting the filters. This wash fluid is not collected with the filtrates.
# 10 μL of each of the filtrates was added to and mixed with 10 μL of Lucigen DNA Extraction Buffer, heated to 65° C. for 6 minutes, then heated to 98° C. for 4 minutes to create extracted filtrates.
# 20 μL of DNA Extraction Buffer was placed into all of the wells of the filter plate, on top of the filters. The filter plate was heated to 65° C. for 6 minutes, shaking at 700 rpm, on a ThermoMixer® flat surface heating block. Then, the filter plate was taped to a clean 96-well polypropylene microtiter plate and centrifuged at 2000 rcf for 2 minutes. The DNA Extraction Buffer fluid that flowed through the filter was collected in the microtiter plate below the filter plate. Next, the microtiter plate was heated to 98° C. for 4 minutes inside a BioRad thermocycler. These collected and heated fluid volumes are termed the “extracted lysate”. […]
# [3] = 1.0 μg/mL ETP, 40 minutes, assuming exponential division, doubling time approximately 30 minutes
# [4] = 1.0 μg/mL ETP, 40 minutes, simple estimate
# [5] = Treated 1.0 μg ETP, 40 minutes 37° C., 48 partitions, ddPCR
smiles,measurement,setting,value
"C[C@@H](O)[C@H]1C(=O)N2C(C(=O)O)=C(S[C@@H]3CN[C@H](C(=O)Nc4cccc(C(=O)O)c4)C3)[C@H](C)[C@H]12 [ETP, ertapenem]",susceptibility call (threshold: reference mean + 2 SD of fraction extracellular),[1]; alternative analysis,susceptible
same,susceptibility call (t-test treated vs untreated percent extracellular),[1]; ddPCR 23S rRNA,susceptible
same,"treated EINAPV (fraction extracellular), alternative estimate","[2]; 1.0 μg/mL ETP, 40 minutes, alternative cell estimate, reference EINAPV 1/6",1/7
same,intact cells in treated condition (alternative estimate),[2]; [3],6
same,killed cells in treated condition (alternative estimate),[2]; [3],1
same,susceptibility call,"[2]; 1.0 μg/mL ETP, 40 minutes, p-value vs 0.05 threshold",resistant
same,intact cells in treated condition at time of filtration (estimate),[2]; [4],3
same,killed cells in treated condition at time of filtration (estimate),[2]; [4],1
same,treated EINAPV (fraction extracellular),"[2]; 1.0 μg/mL ETP, 40 minutes, simple estimate, reference EINAPV 1/4",1/4
same,Both (number of wells),[2]; [5],0
same,Empty (number of wells),[2]; [5],44
same,Extracellular only (number of wells),[2]; [5],1
same,Intracellular only (number of wells),[2]; [5],3
